Assay results reported in patent publication US12173026B2, “PRMT5 inhibitors” (Merck Sharp & Dohme LLC, priority 2018, dated 2024).

Tests used:
[1] = target: T1, PRMT5-MEP50 enzyme complex (Homo sapiens, UniProt O14744); assay: PRMT5-MEP50 Enzyme Methylation Assay; assay type: biochemical; conditions: one EC50 shown: 4 parameters single site sigmoidal model; two shown: first EC50 of 7 parameters biphasic model; 1.0 nM PRMT5-MEP50, 75 nM biotinylated H4R3(Me1) peptide, 15 μM SAM; read-out: Enzyme Methylation Assay (EC50 or EC50 1)
T1 construct: Full-length (FL)-PRMT5-MEP50 enzyme complex; made in house; host or cells: baculovirus-transfected Sf21 cells
Procedure: PRMT5-MEP50 Enzyme Methylation Assay
PRMT5-MEP50 biochemical assay is a direct measurement of the methylation activity of the enzyme complex on a short peptide substrate derived from the N-terminus of […]. Methylation experiment is performed with recombinant PRMT5-MEP50 protein complex. The assessment of inhibitory effect of small molecules is measured by the effectiveness of the compounds to inhibit this reaction (EC50).
In this assay, the potency (EC50) of each compound was determined from a twenty-point (1:2 serial dilution; top compound concentration of 100000 nM) titration curve using the following outlined procedure. To each well of a white ProxiPlus 384 well-plate, 100 nL of compound (1% DMSO in final assay volume of 10 μL) was dispensed, followed by the addition of 8 μL of 1× assay buffer (50 mM Bicine pH 8.0, 1 mM DTT, 0.004% Tween20, 0.01% BSA) containing 1.25 nM of Full-length (FL)-PRMT5-MEP50 enzyme complex (recombinant proteins from baculovirus-transfected Sf21 cells: FL-PRMT5; MW=[…] and FL-MEP50; MW=38614) and 1 μL of 150 μM S-(5′-Adenosyl)-L-Methionine Chloride (SAM). Plates were sealed and placed in a 37° C. humidified chamber for a 60 minutes pre-incubation with compound. Subsequently, each reaction was initiated by the addition of 1 μL 1× assay buffer containing 750 nM biotinylated H4R3(Me1) peptide. The final reaction in each well of 10 μL consists of 1.0 nM PRMT5-MEP50, 75 nM biotinylated-peptide, and 15 μM SAM. Methylation reactions proceeded for 150 minutes in a sealed plate at 37° C. Reactions were immediately quenched by the addition of 1 μL of 5% formic acid. Plates were then frozen and shipped to SAMDI™ Tech Inc. to determine the percent conversion from H4R3(Me1) to H4R3(Me2). Dose-response curves were generated by plotting percent effect (% product conversion; Y-axis) vs. Log 10 compound concentrations (X-axis). EC50 values were determined by non-linear regression according to models for either sigmoidal (4 parameters) or biphasic (7 parameters) dose-response curves.

[2] = system: symmetric dimethylation of arginine (SDMA) of PRMT5 substrates in MCF-7 cells; assay: PRMT5 Cell Target Engagement (TE) Assay; assay type: cell-based; conditions: MCF-7 cells treated for 3 days; nuclear SDMA by high content imaging; top concentration 10000 nM
Outline: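 MCF-7 cells treated 3 days at 37 °C with 10-point 1:3 titration from 10000 nM top. Fixed cells stained with anti-SDMA antibody plus Alexa488 secondary and Hoechst; nuclear fluorescence quantified by high-content imaging versus DMSO wells. EC50 from 4-parameter fit of percent fluorescence vs log concentration.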

T1 sequence (O14744 whole entry): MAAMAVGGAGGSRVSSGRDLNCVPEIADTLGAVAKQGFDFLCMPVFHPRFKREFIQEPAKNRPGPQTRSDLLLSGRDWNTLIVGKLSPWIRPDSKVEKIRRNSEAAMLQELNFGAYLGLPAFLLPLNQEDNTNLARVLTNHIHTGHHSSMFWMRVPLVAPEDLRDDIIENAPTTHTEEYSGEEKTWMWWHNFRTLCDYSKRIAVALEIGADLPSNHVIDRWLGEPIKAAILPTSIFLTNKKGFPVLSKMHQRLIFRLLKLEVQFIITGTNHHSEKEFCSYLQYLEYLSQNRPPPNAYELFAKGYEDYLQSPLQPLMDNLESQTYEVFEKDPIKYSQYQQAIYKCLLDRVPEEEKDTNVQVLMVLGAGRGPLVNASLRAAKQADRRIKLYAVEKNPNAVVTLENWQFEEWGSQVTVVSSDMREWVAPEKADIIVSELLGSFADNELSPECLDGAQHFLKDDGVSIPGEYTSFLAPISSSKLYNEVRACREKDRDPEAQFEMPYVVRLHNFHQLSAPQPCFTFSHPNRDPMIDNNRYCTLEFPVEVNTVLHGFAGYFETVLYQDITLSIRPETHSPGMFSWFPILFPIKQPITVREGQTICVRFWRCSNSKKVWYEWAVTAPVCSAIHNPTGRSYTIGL
T1 sequence (Q9BQA1 whole entry partner): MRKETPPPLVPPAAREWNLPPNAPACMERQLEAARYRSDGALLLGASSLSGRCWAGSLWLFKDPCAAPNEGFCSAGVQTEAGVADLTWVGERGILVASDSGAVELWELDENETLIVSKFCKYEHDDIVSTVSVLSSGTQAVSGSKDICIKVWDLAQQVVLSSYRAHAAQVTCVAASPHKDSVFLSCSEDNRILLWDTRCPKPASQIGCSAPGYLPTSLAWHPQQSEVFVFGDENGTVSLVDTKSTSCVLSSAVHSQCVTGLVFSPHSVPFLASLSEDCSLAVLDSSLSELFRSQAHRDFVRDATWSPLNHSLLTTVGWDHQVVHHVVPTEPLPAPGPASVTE

| SMILES | EC50 [1] [nM] | EC50 [2] [nM] |
| --- | --- | --- |
| Nc1nc2cc(O[C@H]3CC[C@@]4(O)[C@@H]3O[C@@H](n3ccc5c(C(F)F)ncnc53)[C@@H]4O)ccc2cc1Br [Example 79, (2R,3R,3aS,6S,6aR)-6-((2-amino-3-bromoquinolin-7-yl)oxy)-2-(4-(difluoromethyl)-7H-pyrrolo[2,3-d]pyrimidin-7-yl)hexabodro-3aH-cyclopenta[b]furan-3,3a-diol] | 2.9 | 52.5 |
| Nc1nc2cc(CCC3(CF)C[C@@H](n4ccc5c(N)ncnc54)[C@H](O)[C@@H]3O)ccc2cc1Br (stereo partly drawn) [Example 102] | 0.3 | 2 |
| Nc1nc2cc(C[C@@H]3CC[C@@]4(O)[C@@H]3O[C@@H](n3cc(C5CC5)c5c(N)ncnc53)[C@@H]4O)ccc2cc1F [Example 50] | 0.3 | 0.7 |
